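The compound was tested at five concentrations on cells cultured in 96-well plates, with a 48-hour exposure period. GI50: concentration for 50% inhibition of growth.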 The source made the active and inactive calls. No stated cut-off is given here; in the data, active = GI50 up to about 1.1 µM and inactive = higher.
Tests used:
Assay in all cases: inhibition of tumour cell growth, NCI panel, 48 h
[1] = tested on: COLO 205
[2] = tested on: PC-3
[3] = tested on: TK-10
[4] = tested on: NCI-H23
[5] = tested on: HCT-15
[6] = tested on: SK-MEL-28
[7] = tested on: HL-60
[8] = tested on: A549
[9] = tested on: OVCAR-5
[10] = tested on: SR
[11] = tested on: NCI-H460
[12] = tested on: SF-295
[13] = tested on: MDA-MB-435
[14] = tested on: A498
[15] = tested on: OVCAR-3
[16] = tested on: SN12C
[17] = tested on: RXF 393
[18] = tested on: OVCAR-8
[19] = tested on: UACC-62
[20] = tested on: K562

| SMILES | GI50 [1] | GI50 [2] | GI50 [3] | GI50 [4] | GI50 [5] [µM] | GI50 [6] | GI50 [7] | GI50 [8] | GI50 [9] | GI50 [10] | GI50 [11] | GI50 [12] | GI50 [13] | GI50 [14] | GI50 [15] | GI50 [16] | GI50 [17] | GI50 [18] | GI50 [19] | GI50 [20] |
| --- | --- | --- | --- | --- | --- | --- | --- | --- | --- | --- | --- | --- | --- | --- | --- | --- | --- | --- | --- | --- |
| O=C1C=CC2(O[C@H](c3ccccc3)[C@@H](c3ccccc3)O2)C(SC(=O)c2ccccc2)C1 (stereo not given in full) | 1.4 µM (inactive) | 2.13 µM (inactive) | 1.68 µM (inactive) | 1.63 µM (inactive) | 0.673 | 1.79 µM (inactive) | 1.84 µM (inactive) | 4.49 µM (inactive) | 1.69 µM (inactive) | 0.256 µM (active) | 3.02 µM (inactive) | 2.91 µM (inactive) | 2.02 µM (inactive) | 7.71 µM (inactive) | 1.79 µM (inactive) | 2.33 µM (inactive) | 0.182 µM (active) | 0.201 µM (active) | 2.34 µM (inactive) | 1.32 µM (inactive) |
| CN1CCC(O)(OC(=O)C(c2ccccc2)C2(O)CCCC2)CC1 (stereo not given) | > 100 µM (inactive) | > 100 µM (inactive) | > 100 µM (inactive) | > 100 µM (inactive) | > 100 | > 100 µM (inactive) | > 100 µM (inactive) | > 100 µM (inactive) | > 100 µM (inactive) | > 100 µM (inactive) | > 100 µM (inactive) | > 100 µM (inactive) | > 100 µM (inactive) | > 100 µM (inactive) | > 100 µM (inactive) | > 100 µM (inactive) | > 100 µM (inactive) | > 100 µM (inactive) | > 100 µM (inactive) | > 100 µM (inactive) |

From ChEMBL document CHEMBL1201862, “PubChem BioAssay data set” (2004)
